# Experimental data taken from paper PMC9885526 (ACS Central Science, 2023).
# Tests used:
# [1] = system: SARS-CoV-2; details: cited from earlier work
# [2] = system: SARS-CoV-2 (wild-type strain); test: microbe, parasite or virus in culture; type: cell-based; details: Severe acute respiratory syndrome coronavirus 2
# [3] = system: SARS-CoV-2; design: species or system K18-hACE2 transgenic mice; details: mouse, in vivo, po, 300 mg/kg
# [4] = target: SARS-CoV-2 3CLpro (Severe acute respiratory syndrome coronavirus 2, UniProt P0DTD1); test: biochemical
# [5] = system: SARS-CoV-2 (wild-type strain); test: microbe, parasite or virus in culture; type: cell-based; details: Severe acute respiratory syndrome coronavirus 2, 48 h
# [6] = system: SARS-CoV-2 (wild-type strain); test: microbe, parasite or virus in culture; type: cell-based; details: Severe acute respiratory syndrome coronavirus 2, Calu-3
# [7] = in vitro; details: human
# [8] = target: SARS-CoV 3CLpro (Severe acute respiratory syndrome coronavirus, UniProt P0C6X7); type: biochemical
smiles,measurement,setting,value
O=C(Cn1nnc2ccccc21)N(Cc1cccc(Cl)c1)c1ccc(-c2cnc[nH]2)cc1 [CCF0058981],EC50,[1],~0.5 µM
"CC(C)(C)[C@H](NC(=O)C(F)(F)F)C(=O)N1C[C@H]2[C@@H]([C@H]1C(=O)N[C@H](C#N)C[C@@H]1CCNC1=O)C2(C)C [PF-07321332, Nirmatrelvir]",EC50,[2],0.117 µM
same,average body weight change,[3],did not change
CCC(CCNc1c(C(=O)NC)cc(Br)cc1[N+](=O)[O-])NC(=O)c1cncc2cccc(O)c12 (stereo not shown) [WU-01],IC50,[4],0.648 ± 0.068 µM
CNC(=O)c1cc(Br)cc([N+](=O)[O-])c1N1CC[C@@]2(CN(C(=O)c3cncc4cc(O)ccc34)C[C@@H]2c2ccccc2)C1 [WU-02],IC50,[4],0.071 µM
same,EC50,[5],0.054 µM
same,EC90,[5],0.305 µM
same,EC50,[6],0.08 µM
same,EC90,[6],0.201 ± 0.057 µM
same,CC50,[7],> 20 µM
CNC(=O)c1cc(Br)cc([N+](=O)[O-])c1NC(C(C)C)C1CN(C(=O)c2cncc3cc(O)ccc23)C1 (stereo not shown) [WU-05],IC50,[4],0.122 ± 0.016 µM
CNC(=O)c1cc(Br)ccc1N[C@@H]1CCCC[C@@H]1NC(=O)c1cncc2ccccc12 [WU-06],inhibitory activity against SARS-CoV-2 3CLpro,[4],abolished the activity
same,inhibition of SARS-CoV 3CLpro enzyme activity,[8],showed no activity
CNC(=O)c1cc(Br)cc(C(F)(F)F)c1N[C@@H]1CCCC[C@@H]1NC(=O)c1cncc2ccccc12 [WU-07],IC50,[4],0.239 ± 0.016 µM
CNC(=O)c1cc(Br)cc(C#N)c1N[C@@H]1CCCC[C@@H]1NC(=O)c1cncc2ccccc12 [WU-08],IC50,[4],0.467 ± 0.064 µM
CNC(=O)c1cc(Br)cc([N+](=O)[O-])c1N[C@@H]1CCCC[C@@H]1NC(=O)c1cncc2cc(O)ccc12 [WU-09],IC50,[4],0.221 ± 0.035 µM
CNC(=O)c1cc(Br)cc([N+](=O)[O-])c1N[C@@H]1CCCC[C@@H]1NC(=O)c1cncc2cccc(O)c12 [WU-10],IC50,[4],0.135 ± 0.008 µM
COC(=O)c1cc(Br)cc([N+](=O)[O-])c1N[C@@H]1CCCC[C@@H]1NC(=O)c1cncc2ccccc12 [WU-11],IC50,[4],0.849 ± 0.161 µM
O=C(O)c1cc(Br)cc([N+](=O)[O-])c1N[C@@H]1CCCC[C@@H]1NC(=O)c1cncc2ccccc12 [WU-12],IC50,[4],6.11 ± 2.63 µM
